Assay results published in patent US11001560B2, “Compound for blocking absorption of heavy metals by plants and a composition containing the same” (SICHUAN HUI TAI AGRICULTURAL TECHNOLOGY CO. LTD., priority 2018, dated 2021).

What was measured:
bok choy = test: Potted experiment: effect of compound of formula I on reducing heavy metal (Cd, Pb) content in vegetables; format: in vivo
Description: (§1) Potted experiments were carried out. The test soil was collected from the topsoil (0-20 cm) of farmland in the outskirts of Chengdu, Sichuan Province. The soil type was purple soil, with a total lead content of 1209.21 mg kg^−1 and a total cadmium content of 8.06 mg kg^−1. After the soil samples were collected, the plant residues were removed, air-dried, and passed through a 5 mm siever for later use. Test plants were bok choy and pepper. The sieved soil was filled into a tray, and 80 g of soil was filled in each tray. Before the planting, watering was carried out for 3 days to maintain the field water holding capacity of about 60%. Seeds of uniform size were selected. The surface of the seed was sterilized with ethanol: 30% H2O2 (V:V=1:1) for 3 minutes, and rinsed with sterile deionized water. The sterilized plant seeds were divided into two groups. One group was soaked in a deionized aqueous solution (5 g/L) of the compound of formula I for 4 hours, and was set as the experimental group. The other group was soaked in deionized water for the same time as the control group. The process was repeated 4 times. The seeds after soaking were sowed in a pot. After 1 week after emergence, 3 plants were left in each pot. The above soaking treatment was performed again, and the roots of the experimental group and the control group were soaked with 5 mL of an aqueous solution containing a compound of formula I and deionized water per pot, respectively. Watering the plant daily was necessary to ensure the necessary water for plant growth. Plants were harvested after 40 days of growth. The plants were removed from the pot and washed with deionized water. After harvesting, the plants were cut into roots and above ground parts along the junction of the rhizomes. The plants were put in an oven at 105° C. for 15 minutes, dried at 70° C., and weighed the dry weight of roots and above ground parts. The plant samples were grounded and digested by the nitric acid-perchloric acid method. The contents of heavy metals Pb and Cd in the plants were determined by atomic absorption spectrophotometer.

pepper = test: as above; format: in vivo
Description: as §1

[1] = experimental group (5 g/L compound of formula I) vs deionized water control
[2] = seeds soaked 4 hours in 5 g/L aqueous solution, roots soaked again with 5 mL per pot, Pb/Cd-contaminated soil, harvested after 40 days, atomic absorption

C/C=C/C(C[C@]1(O)CCNC[C@H](O)CCC2C=CCC(=O)C2C(=O)C/C=C/C=C/C[C@@H](O)C1)OC (stereo partly shown) [compound of formula I]
Cd and Pb concentrations in the above ground parts and below ground parts of bok choy, compared with the control group (bok choy; [1]): significantly reduce
Cd Concentration in Vegetables, Above Ground Parts, Bok Choy (bok choy; [2]): 2.08 ± 0.19 mg/L
Cd Concentration in Vegetables, Below Ground Parts, Bok Choy (bok choy; [2]): 2.01 ± 0.33 mg/L
Pb Concentration in Vegetables, Above Ground Parts, Bok Choy (bok choy; [2]): 1.51 ± 0.06 mg/L
Pb Concentration in Vegetables, Below Ground Parts, Bok Choy (bok choy; [2]): 6.71 ± 1.08 mg/L
Cd and Pb concentrations in the above ground parts and below ground parts of peppers, compared with the control group (pepper; [1]): significantly reduce
Cd Concentration in Vegetables, Above Ground Parts, Pepper (pepper; [2]): 2.89 ± 0.39 mg/L
Cd Concentration in Vegetables, Below Ground Parts, Pepper (pepper; [2]): 4.58 ± 0.11 mg/L
Pb Concentration in Vegetables, Above Ground Parts, Pepper (pepper; [2]): 1.32 ± 0.08 mg/L
Pb Concentration in Vegetables, Below Ground Parts, Pepper (pepper; [2]): 5.11 ± 0.63 mg/L
